Reference: the supplement of paper PMC10307832

Columns and labels:
Test in all cases: relative viability (nuclei count vs DMSO), 5 days (fraction); higher = more cells survive
[1] = compound: C1/C(=C\C2=CC=CS2)/C(=O)/C(=C/C3=CC=CS3)/C1 + COc1cccc2cc(-c3nc([C@H]4CC[C@H](C(=O)O)CC4)n4ncnc(N)c34)[nH]c12 [OSI-027] (partner 0.5 µM)
Summary of the method: (§1)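 Lung cancer cell lines in 1536-well plates were dosed by pin tool the day after seeding, either with one drug alone or with a fixed anchor-drug dose plus five library-drug doses (not always all listed) in √10 steps. After 5 days, cells were fixed and their nuclei stained in one step (final 0.05% Triton X-100, 1% formaldehyde, 1 ug/ml Hoechst), then counted on 4× images. Relative viability is the nuclei count in treated wells divided by that in vehicle wells. Values are medians of duplicate plates.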

[2] = compound: C1/C(=C\C2=CC=CS2)/C(=O)/C(=C/C3=CC=CS3)/C1 + Cc1nc(Nc2ncc(C(=O)Nc3c(C)cccc3Cl)s2)cc(N2CCN(CCO)CC2)n1 [Dasatinib] (partner 0.075 µM)
Summary of the method: as §1

TPCA-1 + Trametinib = compound: C1=CC(=CC=C1C2=CC(=C(S2)NC(=O)N)C(=O)N)F [TPCA-1] + CC(=O)Nc1cccc(-n2c(=O)n(C3CC3)c(=O)c3c(Nc4ccc(I)cc4F)n(C)c(=O)c(C)c32)c1 [Trametinib] (partner 0.02 µM)
Summary of the method: as §1

TPCA-1 + Phenformin = compound: C1=CC(=CC=C1C2=CC(=C(S2)NC(=O)N)C(=O)N)F [TPCA-1] + N=C(N)NC(=N)NCCc1ccccc1 [Phenformin] (partner 250 µM)
Summary of the method: as §1

LK-2
relative viability ([1]; first compound 0.2 µM): 0.223
relative viability ([1]; first compound 0.6325 µM): 0.226
relative viability ([1]; first compound 2 µM): 0.266
relative viability ([1]; first compound 6.325 µM): 0.216
relative viability ([1]; first compound 20 µM): 0.2
relative viability ([2]; first compound 0.2 µM): 0.359
relative viability ([2]; first compound 0.6325 µM): 0.443
relative viability ([2]; first compound 2 µM): 0.345
relative viability ([2]; first compound 6.325 µM): 0.29
relative viability ([2]; first compound 20 µM): 0.346
relative viability (TPCA-1 + Trametinib; first compound 0.04 µM): 0.76
relative viability (TPCA-1 + Trametinib; first compound 0.1265 µM): 0.535
relative viability (TPCA-1 + Trametinib; first compound 0.4 µM): 0.873
relative viability (TPCA-1 + Trametinib; first compound 1.265 µM): 0.659
relative viability (TPCA-1 + Trametinib; first compound 4 µM): 0.504
relative viability (TPCA-1 + Phenformin; first compound 0.04 µM): 0.868
relative viability (TPCA-1 + Phenformin; first compound 0.1265 µM): 0.236
relative viability (TPCA-1 + Phenformin; first compound 0.4 µM): 0.444
relative viability (TPCA-1 + Phenformin; first compound 1.265 µM): 0.603
relative viability (TPCA-1 + Phenformin; first compound 4 µM): 0.206

SW 1573
relative viability ([1]; first compound 0.2 µM): 0.603
relative viability ([1]; first compound 0.6325 µM): 0.724
relative viability ([1]; first compound 2 µM): 0.756
relative viability ([1]; first compound 6.325 µM): 0.599
relative viability ([1]; first compound 20 µM): 0.617
relative viability ([2]; first compound 0.2 µM): 0.564
relative viability ([2]; first compound 0.6325 µM): 0.516
relative viability ([2]; first compound 2 µM): 0.475
relative viability ([2]; first compound 6.325 µM): 0.429
relative viability ([2]; first compound 20 µM): 0.449
relative viability (TPCA-1 + Trametinib; first compound 0.04 µM): 0.611
relative viability (TPCA-1 + Trametinib; first compound 0.1265 µM): 0.569
relative viability (TPCA-1 + Trametinib; first compound 0.4 µM): 0.535
relative viability (TPCA-1 + Trametinib; first compound 1.265 µM): 0.516
relative viability (TPCA-1 + Trametinib; first compound 4 µM): 0.545
relative viability (TPCA-1 + Phenformin; first compound 0.04 µM): 0.341
relative viability (TPCA-1 + Phenformin; first compound 0.1265 µM): 0.323
relative viability (TPCA-1 + Phenformin; first compound 0.4 µM): 0.411
relative viability (TPCA-1 + Phenformin; first compound 1.265 µM): 0.296
relative viability (TPCA-1 + Phenformin; first compound 4 µM): 0.331

NCI-H2405
relative viability ([1]; first compound 0.2 µM): 0.619
relative viability ([1]; first compound 0.6325 µM): 0.633
relative viability ([1]; first compound 2 µM): 0.705
relative viability ([1]; first compound 6.325 µM): 0.497
relative viability ([1]; first compound 20 µM): 0.624
relative viability ([2]; first compound 0.2 µM): 0.223
relative viability ([2]; first compound 0.6325 µM): 0.212
relative viability ([2]; first compound 2 µM): 0.224
relative viability ([2]; first compound 6.325 µM): 0.211
relative viability ([2]; first compound 20 µM): 0.221
relative viability (TPCA-1 + Trametinib; first compound 0.04 µM): 0.662
relative viability (TPCA-1 + Trametinib; first compound 0.1265 µM): 0.606
relative viability (TPCA-1 + Trametinib; first compound 0.4 µM): 0.722
relative viability (TPCA-1 + Trametinib; first compound 1.265 µM): 0.469
relative viability (TPCA-1 + Trametinib; first compound 4 µM): 0.638
relative viability (TPCA-1 + Phenformin; first compound 0.04 µM): 0.459
relative viability (TPCA-1 + Phenformin; first compound 0.1265 µM): 0.37
relative viability (TPCA-1 + Phenformin; first compound 0.4 µM): 0.471
relative viability (TPCA-1 + Phenformin; first compound 1.265 µM): 0.166
relative viability (TPCA-1 + Phenformin; first compound 4 µM): 0.38

NCI-H2087
relative viability ([1]; first compound 0.2 µM): 0.716
relative viability ([1]; first compound 0.6325 µM): 0.688
relative viability ([1]; first compound 2 µM): 0.769
relative viability ([1]; first compound 6.325 µM): 0.457
relative viability ([1]; first compound 20 µM): 0.42
relative viability ([2]; first compound 0.2 µM): 0.942
relative viability ([2]; first compound 0.6325 µM): 0.879
relative viability ([2]; first compound 2 µM): 1.03
relative viability ([2]; first compound 6.325 µM): 0.655
relative viability ([2]; first compound 20 µM): 0.878
relative viability (TPCA-1 + Trametinib; first compound 0.04 µM): 0.201
relative viability (TPCA-1 + Trametinib; first compound 0.1265 µM): 0.163
relative viability (TPCA-1 + Trametinib; first compound 0.4 µM): 0.231
relative viability (TPCA-1 + Trametinib; first compound 1.265 µM): 0.152
relative viability (TPCA-1 + Trametinib; first compound 4 µM): 0.139
relative viability (TPCA-1 + Phenformin; first compound 0.04 µM): 0.475
relative viability (TPCA-1 + Phenformin; first compound 0.1265 µM): 0.417
relative viability (TPCA-1 + Phenformin; first compound 0.4 µM): 0.417
relative viability (TPCA-1 + Phenformin; first compound 1.265 µM): 0.351
relative viability (TPCA-1 + Phenformin; first compound 4 µM): 0.154

NCI-H460
relative viability ([1]; first compound 0.2 µM): 0.743
relative viability ([1]; first compound 0.6325 µM): 0.81
relative viability ([1]; first compound 2 µM): 0.747
relative viability ([1]; first compound 6.325 µM): 0.515
relative viability ([1]; first compound 20 µM): 0.605
relative viability ([2]; first compound 0.2 µM): 0.562
relative viability ([2]; first compound 0.6325 µM): 0.526
relative viability ([2]; first compound 2 µM): 0.6
relative viability ([2]; first compound 6.325 µM): 0.461
relative viability ([2]; first compound 20 µM): 0.484
relative viability (TPCA-1 + Trametinib; first compound 0.04 µM): 0.172
relative viability (TPCA-1 + Trametinib; first compound 0.1265 µM): 0.161
relative viability (TPCA-1 + Trametinib; first compound 1.265 µM): 0.145
relative viability (TPCA-1 + Trametinib; first compound 4 µM): 0.154
relative viability (TPCA-1 + Phenformin; first compound 0.04 µM): 0.607
relative viability (TPCA-1 + Phenformin; first compound 0.1265 µM): 0.523
relative viability (TPCA-1 + Phenformin; first compound 0.4 µM): 0.53
relative viability (TPCA-1 + Phenformin; first compound 1.265 µM): 0.502
relative viability (TPCA-1 + Phenformin; first compound 4 µM): 0.336

LOU-NH91
relative viability ([1]; first compound 0.2 µM): 0.733
relative viability ([1]; first compound 0.6325 µM): 0.722
relative viability ([1]; first compound 2 µM): 0.769
relative viability ([1]; first compound 6.325 µM): 0.648
relative viability ([1]; first compound 20 µM): 0.714
relative viability ([2]; first compound 0.2 µM): 0.559
relative viability ([2]; first compound 0.6325 µM): 0.582
relative viability ([2]; first compound 2 µM): 0.585
relative viability ([2]; first compound 6.325 µM): 0.514
relative viability ([2]; first compound 20 µM): 0.531
relative viability (TPCA-1 + Trametinib; first compound 0.04 µM): 0.8
relative viability (TPCA-1 + Trametinib; first compound 0.1265 µM): 0.735
relative viability (TPCA-1 + Trametinib; first compound 0.4 µM): 0.835
relative viability (TPCA-1 + Trametinib; first compound 1.265 µM): 0.773
relative viability (TPCA-1 + Trametinib; first compound 4 µM): 0.714
relative viability (TPCA-1 + Phenformin; first compound 0.04 µM): 0.712
relative viability (TPCA-1 + Phenformin; first compound 0.1265 µM): 0.677
relative viability (TPCA-1 + Phenformin; first compound 0.4 µM): 0.73
relative viability (TPCA-1 + Phenformin; first compound 1.265 µM): 0.599
relative viability (TPCA-1 + Phenformin; first compound 4 µM): 0.664

NCI-H1651
relative viability ([1]; first compound 0.2 µM): 0.684
relative viability ([1]; first compound 0.6325 µM): 0.803
relative viability ([1]; first compound 2 µM): 0.815
relative viability ([1]; first compound 6.325 µM): 0.676
relative viability ([1]; first compound 20 µM): 0.789
relative viability ([2]; first compound 0.2 µM): 0.435
relative viability ([2]; first compound 0.6325 µM): 0.504
relative viability ([2]; first compound 2 µM): 0.417
relative viability ([2]; first compound 6.325 µM): 0.425
relative viability ([2]; first compound 20 µM): 0.401
relative viability (TPCA-1 + Trametinib; first compound 0.04 µM): 0.894
relative viability (TPCA-1 + Trametinib; first compound 0.1265 µM): 0.799
relative viability (TPCA-1 + Trametinib; first compound 0.4 µM): 0.838
relative viability (TPCA-1 + Trametinib; first compound 1.265 µM): 0.824
relative viability (TPCA-1 + Trametinib; first compound 4 µM): 0.787
relative viability (TPCA-1 + Phenformin; first compound 0.04 µM): 0.361
relative viability (TPCA-1 + Phenformin; first compound 0.1265 µM): 0.295
relative viability (TPCA-1 + Phenformin; first compound 0.4 µM): 0.368
relative viability (TPCA-1 + Phenformin; first compound 1.265 µM): 0.327
relative viability (TPCA-1 + Phenformin; first compound 4 µM): 0.262

NCI-H441
relative viability ([1]; first compound 0.2 µM): 0.795
relative viability ([1]; first compound 0.6325 µM): 0.661
relative viability ([1]; first compound 2 µM): 0.548
relative viability ([1]; first compound 6.325 µM): 0.602
relative viability ([1]; first compound 20 µM): 0.596
relative viability ([2]; first compound 0.2 µM): 0.798
relative viability ([2]; first compound 0.6325 µM): 0.739
relative viability ([2]; first compound 2 µM): 0.573
relative viability ([2]; first compound 6.325 µM): 0.522
relative viability ([2]; first compound 20 µM): 0.412
relative viability (TPCA-1 + Trametinib; first compound 0.04 µM): 0.402
relative viability (TPCA-1 + Trametinib; first compound 0.1265 µM): 0.405
relative viability (TPCA-1 + Trametinib; first compound 0.4 µM): 0.422
relative viability (TPCA-1 + Trametinib; first compound 1.265 µM): 0.459
relative viability (TPCA-1 + Trametinib; first compound 4 µM): 0.266
relative viability (TPCA-1 + Phenformin; first compound 0.04 µM): 1.15
relative viability (TPCA-1 + Phenformin; first compound 0.1265 µM): 0.688
relative viability (TPCA-1 + Phenformin; first compound 0.4 µM): 0.934
relative viability (TPCA-1 + Phenformin; first compound 1.265 µM): 0.703
relative viability (TPCA-1 + Phenformin; first compound 4 µM): 0.283
